# Assay results taken from patent US4216324A, “1-Difluoromethyl-6,7-methylenedioxy-1,4-dihyd ro-4-oxo-3-quinolinecarboxylic acid” (E. I. Du Pont de Nemours and Company, priority 1978, dated 1980).
# Read-outs that look alike come from different tables or passages of the source.
# Experiments:
# Aero. cloacae = test: In vitro minimum inhibitory concentration (MIC), tube dilution test; format: cell-based; settings: Enterobacter cloacae; Aero. cloacae (39A); brain-heart infusion broth, 20hour incubation at 37° C.; read-out: Minimal Inhibitory Test Conens. (MIC)
# Protocol: (§1) A. In vitro: mimimum inhibitory concentration (MIC)
# (§2) The compound was tested in a standard bacteriological tube dilution test for MIC for a variety of bacteria. Stock cultures of the bacteria listed in Table 1 were grown in bacterial culture media at 37° C. overnight and diluted in culture tubes to a previously determined concentration proper for the test. The compound was added to result in final concentrations of 10, 2, 0.4 and 0.08 μg/ml. These were incubated for 18 hours at 37° C. and then observed to determine if growth of bacteria had occurred. The lowest concentration of the compound that inhibited bacterial growth in the MIC.
# (§3) *brain-heart infusion broth, 20hour incubation at 37° C.
# Bac. subtilis = test: as above; format: cell-based; settings: Bacillus subtilis; Bac. subtilis (07A); brain-heart infusion broth, 20hour incubation at 37° C.; read-out: Minimal Inhibitory Test Conens. (MIC)
# Protocol: as §1, §2, §3
# E. coli = test: as above; format: cell-based; settings: Escherichia coli, 20 h, brain-heart infusion broth, 20hour incubation at 37° C., read-out: Minimal Inhibitory Test Conens. (MIC)
# Protocol: as §1, §2, §3
# Kleb. aerobacter = test: as above; format: cell-based; settings: Kleb. aerobacter (20F); brain-heart infusion broth, 20hour incubation at 37° C.; read-out: Minimal Inhibitory Test Conens. (MIC)
# Protocol: as §1, §2, §3
# Proteus sp. = test: as above; format: cell-based; settings: brain-heart infusion broth, 20hour incubation at 37° C., read-out: Minimal Inhibitory Test Conens. (MIC)
# Protocol: as §1, §2, §3
# Proteus vulgaris = test: as above; format: cell-based; settings: Proteus vulgaris (14P); brain-heart infusion broth, 20hour incubation at 37° C.; read-out: Minimal Inhibitory Test Conens. (MIC)
# Protocol: as §1, §2, §3
# Sal. choleraesuis = test: as above; format: cell-based; settings: Salmonella enterica, 20 h, read-out: Minimal Inhibitory Test Conens. (MIC)
# Protocol: as §1, §2, §3
# Sal. gallinarum = test: as above; format: cell-based; settings: Salmonella enterica, 20 h, brain-heart infusion broth, 20hour incubation at 37° C., read-out: Minimal Inhibitory Test Conens. (MIC)
# Protocol: as §1, §2, §3
# Sal. typhimurium = test: as above; format: cell-based; settings: Salmonella enterica, 20 h, brain-heart infusion broth, 20hour incubation at 37° C., read-out: Minimal Inhibitory Test Conens. (MIC)
# Protocol: as §1, §2, §3
# Sal. typhi = test: as above; format: cell-based; settings: Salmonella enterica, TYPHI, 20 h, brain-heart infusion broth, 20hour incubation at 37° C.
# Protocol: as §1, §2, §3
# Ser. marcescens = test: as above; format: cell-based; settings: Serratia marcescens; Ser. marcescens (22); brain-heart infusion broth, 20hour incubation at 37° C.; read-out: Minimal Inhibitory Test Conens. (MIC)
# Protocol: as §1, §2, §3
# Shiq. dysenteriae = test: as above; format: cell-based; settings: 20 h, read-out: Minimal Inhibitory Test Conens. (MIC)
# Protocol: as §1, §2, §3
# Strep. pyogenes = test: as above; format: cell-based; settings: Streptococcus pyogenes; Strep. pyogenes (10V); brain-heart infusion broth, 20hour incubation at 37° C.; read-out: Minimal Inhibitory Test Conens. (MIC)
# Protocol: as §1, §2, §3
# in vivo = settings: mouse, in vivo, po; for TD50: doses given in mg./kg
# Protocol: 17- to 24-hour fasted female white mice, 16-20 g. each, or rats, 70-90 g. each were dosed orally with test drug (or standard) at 0, 4, 12, 36, 108 or 324 mg./kg.
# Ataxia--The mouse or rat was placed upright on the bench top facing away from the observer. Motor incoordination manifested by abnormal gait or lack of precision during purposive movements constituted ataxia.
# Vertical Bar--The mouse or rat was swung by the tail with head pointing down to a 0.5" diameter (1" diameter for rats), 30.5 cm long vertical rod covered with adhesive tape. Inability to grip the rod with the front paws, sliding or failure to move after being prodded constituted vertical bar loss.
# Body Temperature--The rectal temperatures of the mice and rats were taken using a KC-1 thermocouple probe.
# Excitement and Irritability--Increased spontaneous motor activity, running and jumping prior to handling were recorded as excitement. Upon handling, jumping, jerking, biting and squeaking were recorded as irritability.
# Anorexia--At the end of the 0.5 hour testing period, each mouse was transferred to an individual, clear, Lucite® compartment (13.3 cm×12.7 cm×12.7 cm) with a 0.64 cm×0.64 cm wire mesh floor. Inside each compartment there was a section of a black Lucite® bar [13 cm×1.2 cm×1.2 cm) with ten spot depressions (0.8 cm diameter) each containing 0.05 ml. of 50% sweetened condensed milk. 30 Minutes later the number of milk spots consumed was counted. 5 Mice per drug dose can drink a maximum of 50 spots (2.5 ml. of milk). 15 or fewer spots consumed by 5 mice constituted anorexia.
# [1] = General pharmacology screen in rats; settings: rat, in vivo, po; for TD50: doses given in mg./kg
# Pseud. aeruginosa = test: In vitro minimum inhibitory concentration (MIC), tube dilution test; format: cell-based; settings: Pseudomonas aeruginosa, 20 h, brain-heart infusion broth, 20hour incubation at 37° C., read-out: Minimal Inhibitory Test Conens. (MIC)
smiles,measurement,setting,value
"O=C(O)c1cn(C(F)F)c2cc3c(cc2c1=O)OCO3 [DFMQ, 1-difluoromethyl-6,7-methylenedioxy-1,4-dihydro-4-oxo-3-quinolinecarboxylic acid]",MIC,Aero. cloacae,< 0.08 µg/mL
same,MIC,Bac. subtilis,< 0.08 µg/mL
same,MIC,E. coli; E. coli (06-2B),2 µg/mL
same,MIC,E. coli; E. coli (06-2F),0.4 µg/mL
same,MIC,E. coli; E. coli (06-2L),10 µg/mL
same,MIC,E. coli; E. coli (06-2M),< 0.08 µg/mL
same,MIC,E. coli; E. coli (06C),2 µg/mL
same,MIC,E. coli; E. coli (06I),10 µg/mL
same,MIC,E. coli; E. coli (06J),0.4 µg/mL
same,MIC,E. coli; E. coli (06K),0.4 µg/mL
same,MIC,E. coli; E. coli (06L),0.4 µg/mL
same,MIC,E. coli; E. coli (06M),0.4 µg/mL
same,MIC,E. coli; E. coli (06S),0.4 µg/mL
same,MIC,E. coli; E. coli (06V),0.4 µg/mL
same,MIC,E. coli; E. coli (06X),2 µg/mL
same,MIC,E. coli; E.coli (06-2D),2 µg/mL
same,MIC,Kleb. aerobacter,2 µg/mL
same,MIC,Proteus sp.,< 0.08 µg/mL
same,MIC,Proteus vulgaris,2 µg/mL
same,MIC,Sal. choleraesuis,< 0.08 µg/mL
same,MIC,Sal. gallinarum; Sal. gallinarum (04C),2 µg/mL
same,MIC,Sal. gallinarum; Sal. gallinarum (04D),0.4 µg/mL
same,MIC,Sal. typhimurium; Sal. typhimurium (03A),0.4 µg/mL
same,MIC,Sal. typhimurium; Sal. typhimurium (03C),0.4 µg/mL
same,MIC,Sal. typhimurium; Sal. typhimurium (03K),< 0.08 µg/mL
same,MIC,"Sal. typhi; read-out: Minimal Inhibitory Test Conens. (MIC), Sal. typhi (02A)",2 µg/mL
same,MIC,"Sal. typhi; read-out: Minimal Inhibitory Test Conens. (MIC), Sal. typhi (02B)",0.4 µg/mL
same,MIC,Ser. marcescens,0.4 µg/mL
same,MIC,Shiq. dysenteriae,0.4 µg/mL
same,MIC,Strep. pyogenes,< 0.08 µg/mL
same,LD50 at 24 h,in vivo,> 450 mg/kg
same,TD50,"in vivo; ED50 Anoroxia, 15 or fewer milk spots consumed by 5 mice",> 450 mg/kg
same,TD50,in vivo; ED50 Ataxia,> 450 mg/kg
same,TD50,in vivo; ED50 Excitation,> 450 mg/kg
same,TD50,"in vivo; ED50 Hypertherm., rectal temperature",> 450 mg/kg
same,TD50,"in vivo; ED50 Hypotherm., rectal temperature",> 450 mg/kg
same,TD50,in vivo; ED50 Irritability,> 450 mg/kg
same,TD50,"in vivo; ED50 Vert. Bar, vertical bar loss",> 450 mg/kg
same,LD50 at 24 h,[1],> 324 mg/kg
same,TD50,[1]; read-out: ED50 Ataxia,> 324 mg/kg
same,TD50,[1]; read-out: ED50 Excitation,> 324 mg/kg
same,TD50,[1]; read-out: ED50 Irritability,> 324 mg/kg
same,TD50,"[1]; rectal temperature, read-out: ED50 Hypertherm.",> 324 mg/kg
same,TD50,"[1]; rectal temperature, read-out: ED50 Hypotherm.",> 324 mg/kg
same,TD50,"[1]; vertical bar loss, read-out: ED50 Vert. Bar",> 324 mg/kg
same,MIC,Pseud. aeruginosa; Pseud. aeruginosa (11B),10 µg/mL
same,MIC,Pseud. aeruginosa; Pseud. aeruginosa (11C),2 µg/mL
same,MIC,Pseud. aeruginosa; Pseud. aeruginosa (11D),10 µg/mL
same,MIC,Pseud. aeruginosa; Pseud. aeruginosa (11G),10 µg/mL
same,MIC,Pseud. aeruginosa; Pseud. aeruginosa (11I),2 µg/mL
same,MIC,Pseud. aeruginosa; Pseud. aeruginosa (11J),10 µg/mL
